From patent US20190282498A1, “FREEZE-DRIED PROBIOTIC FOODSTUFFS” (IMAGILIN TECHNOLOGY, LLC, priority 2018, published 2019)

Test system: E. coli
Test: Survival of E. coli with amoxicillin (comparison, data not shown)
Assay type: cell-based
Conditions: 500 μg/ml of amoxicillin
Procedure: In order to determine whether freeze-drying interfered with this antibiotic compatibility, Pediococcus probiotic freeze-dried products were exposed amoxicillin at 10 μg/ml, 50 μg/ml, 100 μg/ml, and 500 μg/ml, and incubated at 45° C. for […] to see if any survival of Pediococcus acidilactici NRRL B-50517. […] For comparison, E. coli had 0% survival at 500 μg/ml of amoxicillin (data not shown).

SMILES: CC1(C)S[C@@H]2[C@H](NC(=O)[C@H](N)c3ccc(O)cc3)C(=O)N2[C@H]1C(=O)O [amoxicillin]
- survival of E. coli: 0%
